In patent US8940685B2, “Method for preparing active peptides from corn germ proteins” (China National Research Institute of Food and Fermentation …, priority 2011, dated 2015):
pIC50: −log10 of the molar value.

Legend:
[1] = test system: spontaneous hypertension rats; assay: antihypertensive effect on spontaneous hypertension rat, 8 weeks of continuous gavage; type: in vivo; conditions: for blood pressure: Captopril group 10 mg/kg.bw gavage, n = 8
Procedure: The blank control group was gavaged with the same volume of distilled water, and the positive control group was gavaged with 10 mg/kg.bw captopril.

ACE = ACE (Homo sapiens, UniProt P12821); conditions: read-out: in vitro antihypertensive activity IC50; cited from earlier work
Sequence of ACE (P12821 30-1306, species assumed): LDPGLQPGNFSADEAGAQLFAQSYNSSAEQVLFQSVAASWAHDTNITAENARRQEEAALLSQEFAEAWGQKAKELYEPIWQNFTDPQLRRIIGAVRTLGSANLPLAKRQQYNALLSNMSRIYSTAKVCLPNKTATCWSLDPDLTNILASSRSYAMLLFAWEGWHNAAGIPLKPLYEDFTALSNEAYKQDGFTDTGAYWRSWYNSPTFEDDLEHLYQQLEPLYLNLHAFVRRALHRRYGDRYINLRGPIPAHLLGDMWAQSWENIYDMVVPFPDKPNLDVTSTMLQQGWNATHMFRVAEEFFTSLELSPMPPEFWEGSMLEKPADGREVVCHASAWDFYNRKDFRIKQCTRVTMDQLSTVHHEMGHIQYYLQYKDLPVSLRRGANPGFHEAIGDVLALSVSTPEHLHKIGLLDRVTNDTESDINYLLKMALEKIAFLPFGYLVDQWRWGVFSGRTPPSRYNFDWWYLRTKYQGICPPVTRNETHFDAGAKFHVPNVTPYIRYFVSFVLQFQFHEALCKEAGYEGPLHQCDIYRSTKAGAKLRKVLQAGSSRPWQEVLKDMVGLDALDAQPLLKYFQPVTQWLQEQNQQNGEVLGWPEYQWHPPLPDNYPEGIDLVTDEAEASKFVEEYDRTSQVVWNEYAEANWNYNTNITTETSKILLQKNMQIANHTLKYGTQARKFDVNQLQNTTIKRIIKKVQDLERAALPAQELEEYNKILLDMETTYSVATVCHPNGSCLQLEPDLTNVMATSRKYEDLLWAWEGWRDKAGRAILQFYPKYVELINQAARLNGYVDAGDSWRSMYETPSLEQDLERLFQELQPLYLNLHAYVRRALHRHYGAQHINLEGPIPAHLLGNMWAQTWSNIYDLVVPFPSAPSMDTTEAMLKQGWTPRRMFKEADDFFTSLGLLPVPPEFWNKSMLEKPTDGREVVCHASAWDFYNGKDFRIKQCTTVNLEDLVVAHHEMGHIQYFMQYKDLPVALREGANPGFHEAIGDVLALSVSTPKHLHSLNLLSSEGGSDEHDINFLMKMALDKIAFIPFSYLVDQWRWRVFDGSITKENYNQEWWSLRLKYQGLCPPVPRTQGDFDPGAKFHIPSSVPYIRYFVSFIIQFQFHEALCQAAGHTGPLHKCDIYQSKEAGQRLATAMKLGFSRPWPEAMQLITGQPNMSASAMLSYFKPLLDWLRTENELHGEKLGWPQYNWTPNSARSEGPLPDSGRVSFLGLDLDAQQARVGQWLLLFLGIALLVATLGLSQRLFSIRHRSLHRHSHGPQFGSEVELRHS

SHR = conditions: oral gavage 50 mg/kg, after two hours; cited from earlier work
[2] = after 8 weeks of continuous gavage, each group, P>0.05

For C[C@H](CS)C(=O)N1CCC[C@H]1C(=O)O [Captopril, captopril], the blood pressure ([1]; 0w) was 193 ± 6 mmHg, the blood pressure ([1]; 1w) was 184 ± 16 mmHg and the blood pressure ([1]; 2w) was 177 ± 9 mmHg. It also gave a blood pressure ([1]; 3w) of 174 ± 12 mmHg, a blood pressure ([1]; 4w) of 170 ± 14 mmHg and a blood pressure ([1]; 5w) of 168 ± 12 mmHg. For the same molecule, the blood pressure ([1]; 6w) was 164 ± 17 mmHg, the blood pressure ([1]; 7w) was 162 ± 15 mmHg and the blood pressure ([1]; 8w) was 161 ± 16 mmHg. For the same molecule, the body weight [1, 2] was “no significant change”, the heart rate [1, 2] was “no significant change” and the heart/body weight ratio [1, 2] was “no significant change”. For the same molecule, the “Serum aldosterone concentration vs control group” value ([1]; captopril group 10 mg/kg.bw, n=8, P<0.01) was “significantly lower”.
For alanine-Tyrosine [AY], the pIC50 (ACE) is given as 4.85 and the “drop of blood pressure” value (SHR) is given as 9.5 mmHg.
